According to US20230365563A1, “QUINAZOLINE COMPOUND AND APPLICATION THEREOF” (SHANGHAI PHARMACEUTICALS HOLDING CO., LTD., priority 2020, published 2023):
Where a name gives a salt, the structure may show the parent alone.

Columns and labels:
KRAS-G12D and SOS1 = biological target: T1, KRAS-G12D and SOS1 (Homo sapiens, UniProt P01116, G12D); experiment: Inhibition of KRAS-G12D/SOS1 binding (Cisbio binding kit, 665/615 ratio), Effect Embodiment A; details: read-out: GTP-KRAS-G12D:SOS1 IC50
T1 construct: purchased
How it was run: (§1)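 Compounds underwent 3-fold dilution from their storage solutions (11 points), were transferred to assay wells in duplicate with DMSO held at 1% final, and were briefly centrifuged.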

KRAS_WT and SOS1 = biological target: T2, KRAS_WT and SOS1 (Homo sapiens, UniProt P01116); experiment: Inhibition of KRAS_WT/SOS1 binding (Cisbio binding kit, 665/615 ratio), Effect Embodiment C; details: read-out: GTP-KRAS-WT:SOS1 IC50
T2 construct: purchased
How it was run: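 Compounds tested as 3-fold, 11-point dilutions in duplicate at 1% DMSO final against the KRAS_WT/SOS1 binding system. IC50 derived by nonlinear regression fit.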

KRAS_G12D and cRAF = biological target: T3, KRAS_G12D and cRAF (Homo sapiens, UniProt P01116, G12D); experiment: Inhibition of KRAS_G12D/cRAF binding (Cisbio binding kit, 665/615 ratio), Effect Embodiment B; details: read-out: GTP-KRAS-G12D:CRAF IC50
T3 construct: purchased
How it was run: as §1

T2 sequence (P01116 1-188 isoform P01116-2): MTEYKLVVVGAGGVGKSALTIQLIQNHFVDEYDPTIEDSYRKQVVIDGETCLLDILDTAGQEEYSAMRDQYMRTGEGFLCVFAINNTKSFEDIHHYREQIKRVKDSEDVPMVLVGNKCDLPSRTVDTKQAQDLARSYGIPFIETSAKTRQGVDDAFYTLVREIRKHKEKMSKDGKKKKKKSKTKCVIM
T3 sequence (P01116 1-188 isoform P01116-2 G12D): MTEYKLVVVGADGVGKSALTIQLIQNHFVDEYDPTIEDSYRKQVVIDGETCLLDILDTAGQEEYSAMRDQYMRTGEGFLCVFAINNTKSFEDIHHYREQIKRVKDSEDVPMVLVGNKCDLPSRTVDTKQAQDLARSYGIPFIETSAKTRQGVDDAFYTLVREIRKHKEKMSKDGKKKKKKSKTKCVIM
T1 sequence (P01116 1-188 isoform P01116-2 G12D): as above

SMILES	IC50 (KRAS-G12D and SOS1) [nM]	IC50 (KRAS_WT and SOS1) [nM]	IC50 (KRAS_G12D and cRAF) [nM]
CCc1c(F)ccc2cccc(-c3c(F)cc4c(N5CC6CCC(C5)N6)nc(OC[C@@]56CCCN5C[C@H](F)C6)nc4c3F)c12 (single isomer, unassigned) [Compound 280a, 4-((1R,5S)-3,8-diazacyclo[3.2.1]octan-3-yl)-7-((S or R)-8-ethyl-7-fluoronaphthalen-1-yl)-6,8-difluoro-2-((2R,7aS)-2-fluorotetrahydro-1H-pyrrolidin-7a(5H)-yl)methoxy)quinazoline dihydrochloride]	17.1	234	14.1
CCc1cccc2cccc(-c3c(F)cc4c(N5CC6CCC(C5)N6)nc(OC[C@@]56CCCN5C[C@H](F)C6)nc4c3F)c12 (single isomer, unassigned) [Compound 281a, (S or R)-4-((1R,5S)-3,8-diazacyclo[3.2.1]octan-3-yl)-7-(8-ethylnaphthalen-1-yl)-6,8-difluoro-2-((2R,7aS)-2-fluorotetrahydro-1H-pyrrolin-7a(5H)-yl)methoxy)quinazoline dihydrochloride]	17.8	564	20.3
CCc1cccc2cc(O)cc(-c3c(F)cc4c(N5CC6CCC(C5)N6)nc(OCCCN5CCOC[C@H]5C)nc4c3F)c12 (single isomer, unassigned) [Compound 282a, (S or R)-4-(4-((1R,5S)-3,8-diazacyclo[3.2.1]octan-3-yl)-6,8-difluoro-2-(3-((R)-3-methylmorpholinyl)propoxy)quinazolin-7-yl)-5-ethylnaphthalen-2-ol dihydrochloride]	16.5	175	13.6
Cn1cnc(Cn2ccc3ccc(CNCc4[nH]c5ccccc5c4[C@H]4NC(=O)c5ccc(O)cc54)cc32)c1 [BI-2852, reference compound]	238	136	2700
CN(C)CCCOc1nc(N2C[C@H]3CC[C@@H](C2)N3)c2cnc(-c3cc(O)cc4ccccc34)c(F)c2n1 [Compound 82, 4-(4-((1R,5S)-3,8-diazabicyclo[3.2.1]octan-3-yl)-2-(3-(dimethylamino)propoxy)-8-fluoropyrido[4,3-d]pyrimidin-7-yl)naphthalen-2-ol]	21.6	1560	102
CN1C[C@@H](F)C[C@H]1COc1nc(N2CC3CCC(C2)N3)c2cnc(-c3cc(O)cc4ccccc34)c(F)c2n1 [Compound 129, 4-(4-((1R,5S)-3,8-diazabicyclo[3.2.1]octan-3-yl)-8-fluoro-2-((2S,4S)-4-fluoro-1-methylpyrrolidin-2-yl)methoxy)pyridinyl[4.3-d]pyrimidin-7-yl)naphthalen-2-ol ditrifluoroacetate]	42	2270	180
CN1C[C@H](F)C[C@H]1COc1nc(N2CC3CCC(C2)N3)c2cnc(-c3cc(O)cc4ccccc34)c(F)c2n1 [Compound 131]	20.9	222	37
C[C@H]1C[C@@H](COc2nc(N3CC4CCC(C3)N4)c3cnc(-c4cc(O)cc5ccccc45)c(F)c3n2)N(C)C1 [Compound 133, 4-(4-((1R,5S)-3.8-diazabicyclo[3.2.1]octan-3-yl)-2-((2S,4S)-1,4-dimethylpyrrolidin-2-yl)methoxy)-8-fluoropyridinyl[4,3-d]pyrimidin-7-yl)naphthalen-2-ol trifluoroacetate]	19.3	85.4	18.7
CO[C@@H]1C[C@@H](COc2nc(N3CC4CCC(C3)N4)c3cnc(-c4cc(O)cc5ccccc45)c(F)c3n2)N(C)C1 [Compound 134, 4-(4-((1R,5S)-3,8-diazabicyclo[3.2.1]octan-3-yl)-8-fluoro-2-((2S,4R)-4-methxoy-1-methylpyrrolidin-2-yl)methoxy)pyridinyl[4,3-d]pyrimidin-7-yl)naphthalen-2-ol diformate]	17.9	498	26.2

Now from value to compound:

IC50 (KRAS-G12D and SOS1) [nM]	IC50 (KRAS_WT and SOS1) [nM]	IC50 (KRAS_G12D and cRAF) [nM]	SMILES
15.8	761	19.2	CCc1cccc2cc(O)cc(-c3c(F)cc4c(N5CC6CCC(C5)N6)nc(OCCCN5C[C@@H](C)O[C@@H](C)C5)nc4c3F)c12 (single isomer, unassigned) [Compound 283a, (S or R)-4-(4-((1R,5S)-3,8-diazacyclo[3.2.1]octan-3-yl)-2-(3-((2S,6R)-2,6-dimethylmorpholinylpropoxy)-6,8-difluoroquinazolin-7-yl)-5-ethylnaphthalen-2-oldihydrochloride]
17.3	251	11	CCc1cccc2cc(O)cc(-c3c(F)cc4c(N5CC6CCC(C5)N6)nc(OC[C@H](C)CN5C6CCC5COC6)nc4c3F)c12 (single isomer, unassigned) [Compound 284a, (4S or 4R)-4-(2-((2R)-3-(3-oxa-8-azabicyclo[3.2.1]octan-8-yl)-2-methylpropoxy)-4-((1R,5S)-3,8-diazabicyclo[3.2.1]octan-3-yl)-6,8-difluoroquinazolin-7-yl)-5-ethylnaphthalen-2-ol dihydrochloride]
16.6	18.4	9.12	CCc1cccc2cc(O)cc(-c3c(F)cc4c(N5CC6CCC(C5)N6)nc(OC[C@@]56CCCN5C[C@H](F)C6)nc4c3F)c12 (single isomer, unassigned) [Compound 285a, (S or R)-4-(4-((1R,5S)-3,8-diazacyclo[3.2.1]octan-3-yl)-6,8-difluoro-2-((2R,7aS)-2-fluorotetrahydro-1H-pyrrolidin-7a(5H-yl)methoxy)quinazolin-7-yl)-5-ethylnaphthalen-2-ol dihydrochloride]
13.5	262	9.77	CCc1cccc2cc(O)cc(-c3c(F)cc4c(N5CC6CCC(C5)N6)nc(OC[C@H](C)CN5C6CCC5CC(OC)C6)nc4c3F)c12 (single isomer, unassigned) [Compound 286a, (S or R)-4-(4-((1R,5S)-3,8-diazabicyclo[3.2.1]octan-3-yl)-6,8-difluoro-2-((R)-3-((1R,3S,5S)-3-methoxy-8-azabicyclo[3.2.1]octan-8-yl)-2-methylpropoxy)quinazolin-7-yl)-5-ethylnaphthalen-2-o1 dihydrochloride]
10.1	29.1	11.3	C=CCN1CCC[C@H]1COc1nc(N2CC3CCC(C2)N3)c2cc(F)c(-c3cc(O)cc4ccc(F)c(CC)c34)c(F)c2n1 (single isomer, unassigned) [Compound 287a, 4-((S or R)-2-((S)-1-allylpyrrolidin-2-yl)methoxy)-4-((1R,5S)-3,8-diazacyclo[3.2.1]octan-3-yl)-6,8-difluoroquinazolin-7-yl)-5-ethyl-6-fluoronaphthalen-2-ol dihydrochloride]
27.6	257	67.6	CCc1c(F)ccc2cc(O)cc(-c3c(Cl)cc4c(N5CC6CCC(C5)N6)nc(OCCCN5C6CCC5COC6)nc4c3F)c12 (single isomer, unassigned) [compound 251]
21.7	414	48	Oc1cc(-c2c(Cl)cc3c(N4CC5CCC(C4)N5)nc(OCCCN4C5CCC4COC5)nc3c2F)c2cc(F)ccc2c1 (single isomer, unassigned) [compound 252]
